We go through seven compounds from PubChem BioAssay (NCI).

Some test systems named below: HCC-2998 colon; K-562 leukemia; UO-31 renal; T-47D breast; MDA-MB-435; M14 melanoma; MALME-3M melanoma; UACC-62 melanoma; NCI-H226 lung; A549 NSCLC; MCF7 breast; ACHN renal; HOP-62 NSCLC; NCI-H460 lung; CCRF-CEM leukemia; HT29 colon; IGROV1 ovarian; EKVX NSCLC; SW-620 colon; A498 renal.
Experiment in all cases: NCI tumour cell line growth inhibition, 48 h

SMILES strings stand for the structures.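 Step 1: Grow cells in 96-well plates. Step 2: Expose to compound for 48 hours at 5 concentrations. Step 3: Interpolate endpoints linearly; if unreached, use highest concentration. Definition used: TGI = concentration required for complete inhibition of growth.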 A value given as a limit tells only on which side of the number the result lay.

Consider `COc1ccc2c(c1)N(C(C)=O)CN1C(=O)CCC21` (centres undefined), for which the TGI in the assay on HCC-2998 colon, in the assay on K-562 leukemia, in the assay with UO-31 renal, with T-47D breast, in the assay with MDA-MB-435 and in the assay with M14 melanoma was > 100 µM throughout. Further, the TGI in the assay with MALME-3M melanoma, with UACC-62 melanoma, in the assay with NCI-H226 lung, in the assay on A549 NSCLC, in the assay on MCF7 breast and in the assay with ACHN renal was > 100 µM each time. For the same compound, the TGI in the assay on HOP-62 NSCLC, with NCI-H460 lung, in the assay with CCRF-CEM leukemia, in the assay on HT29 colon, in the assay with IGROV1 ovarian and in the assay on EKVX NSCLC was > 100 µM each time. Also, the TGI with SW-620 colon and in the assay on A498 renal was > 100 µM throughout.

Regarding `CCOc1ccc(N/C(=C(/C(Cl)=C(/Cl)NCCO)[N+](=O)[O-])n2nnc3ccccc32)cc1`, the TGI in the assay with HCC-2998 colon is > 100 µM; with K-562 leukemia, > 100 µM; in the assay with UO-31 renal, 58 µM; in the assay with T-47D breast, 37.6 µM; in the assay with MDA-MB-435, 35.1 µM; with M14 melanoma it was > 100 µM. Moreover, the TGI with MALME-3M melanoma is 32.4 µM; in the assay with UACC-62 melanoma it was 56.7 µM; in the assay on NCI-H226 lung, > 100 µM; with A549 NSCLC, > 100 µM; in the assay with MCF7 breast it was 38.8 µM; in the assay on ACHN renal it was 48.4 µM. The TGI in the assay on HOP-62 NSCLC is > 100 µM; with NCI-H460 lung, > 100 µM; in the assay with CCRF-CEM leukemia it was > 100 µM; with HT29 colon, 85.3 µM; with EKVX NSCLC, > 100 µM; in the assay with SW-620 colon, 39.9 µM. The TGI in the assay with A498 renal was > 100 µM.

As to `O=C1SC(c2ccc(Cl)cc2)(c2ccc(Cl)cc2)c2ccccc21`, the TGI with HCC-2998 colon, in the assay with K-562 leukemia, in the assay on UO-31 renal, in the assay with T-47D breast, in the assay with MDA-MB-435 and in the assay on M14 melanoma was > 100 µM each time. For the same compound, the TGI in the assay on MALME-3M melanoma, with UACC-62 melanoma, in the assay on NCI-H226 lung, in the assay on A549 NSCLC, with MCF7 breast and with ACHN renal was > 100 µM throughout. In addition, the TGI with HOP-62 NSCLC, with NCI-H460 lung, in the assay on CCRF-CEM leukemia, with HT29 colon, in the assay with IGROV1 ovarian and in the assay with EKVX NSCLC was > 100 µM throughout. Further, the TGI with SW-620 colon and with A498 renal was > 100 µM throughout.

Take `CC(=O)O[C@H]1C(=O)[C@@]2(C)[C@H]([C@H](OC(=O)c3ccc([N+](=O)[O-])cc3)[C@]3(O)C[C@H](OC(=O)[C@H](O)[C@@H](NC(=O)c4ccccc4)c4ccccc4)C(C)=C1C3(C)C)[C@]1(OC(C)=O)CO[C@@H]1C[C@@H]2O`: the TGI with HCC-2998 colon, with K-562 leukemia, in the assay with UO-31 renal, in the assay with T-47D breast, in the assay with MDA-MB-435 and in the assay on M14 melanoma was > 25 µM throughout. For the same compound, the TGI with MALME-3M melanoma, with UACC-62 melanoma, in the assay with NCI-H226 lung, in the assay on A549 NSCLC, in the assay with MCF7 breast and in the assay on ACHN renal was > 25 µM in each case. Further, the TGI in the assay on HOP-62 NSCLC, in the assay with NCI-H460 lung, in the assay with CCRF-CEM leukemia, in the assay with HT29 colon, with IGROV1 ovarian and with EKVX NSCLC was > 25 µM in each case. For the same compound, the TGI in the assay on SW-620 colon and in the assay on A498 renal was > 25 µM each time.

Consider `Cc1cnc2[nH]c(-c3ccc(F)cc3)cc(=O)c2c1`, for which the TGI was > 100 µM with HCC-2998 colon; 47 µM in the assay with K-562 leukemia; > 100 µM in the assay on UO-31 renal; > 100 µM in the assay with T-47D breast; 12.6 µM in the assay on MDA-MB-435; > 100 µM in the assay with M14 melanoma. The TGI in the assay on MALME-3M melanoma was > 100 µM; in the assay on UACC-62 melanoma, > 100 µM; with NCI-H226 lung, > 84.5 µM; in the assay on A549 NSCLC, > 100 µM; with MCF7 breast, > 100 µM; in the assay on ACHN renal, > 100 µM. For the same compound, the TGI with HOP-62 NSCLC was > 83.1 µM; in the assay with NCI-H460 lung, > 100 µM; in the assay on CCRF-CEM leukemia, > 100 µM; in the assay with HT29 colon, > 100 µM; in the assay with IGROV1 ovarian, > 100 µM; in the assay with EKVX NSCLC it was > 100 µM. Further, the TGI in the assay with SW-620 colon was > 100 µM; in the assay with A498 renal, 81.3 µM.

`COc1ccc2nc3cc([N+](=O)[O-])ccc3c(NNc3ccc(Cl)cc3)c2c1`: the TGI was 60.6 µM with HCC-2998 colon; > 68.3 µM in the assay with K-562 leukemia; > 100 µM with UO-31 renal; > 100 µM with T-47D breast; > 100 µM in the assay on MDA-MB-435; > 92.5 µM with M14 melanoma. Also, the TGI is > 100 µM with MALME-3M melanoma; > 65.9 µM in the assay with UACC-62 melanoma; 26 µM with NCI-H226 lung; > 85 µM with A549 NSCLC; > 100 µM in the assay with MCF7 breast; > 82.2 µM with ACHN renal. Further, the TGI with HOP-62 NSCLC was > 78.8 µM; in the assay with NCI-H460 lung, > 59 µM; with CCRF-CEM leukemia it was 80.1 µM; in the assay on HT29 colon it was 43.5 µM; with IGROV1 ovarian, 45.1 µM; in the assay with EKVX NSCLC, 99 µM. For the same compound, the results for the TGI in the assay with SW-620 colon and in the assay with A498 renal were > 76.3 µM and 0.221 µM, respectively.

As to `CC(=O)n1nc(-c2nc3ccccc3nc2Cl)cc1Cl`, the TGI is > 100 µM in the assay with HCC-2998 colon; > 53.2 µM in the assay on K-562 leukemia; 4.79 µM in the assay with UO-31 renal; > 100 µM in the assay on T-47D breast; 19 µM in the assay on MDA-MB-435; 19.4 µM with M14 melanoma. The TGI is > 78.7 µM in the assay on MALME-3M melanoma; > 100 µM in the assay on UACC-62 melanoma; 30.8 µM in the assay with NCI-H226 lung; > 88.5 µM with A549 NSCLC; > 82.6 µM in the assay on MCF7 breast; 28.5 µM in the assay with ACHN renal. Moreover, the TGI in the assay on HOP-62 NSCLC was 73.8 µM; in the assay on NCI-H460 lung it was > 88.2 µM; in the assay on CCRF-CEM leukemia it was 7.73 µM; in the assay with HT29 colon, 51.9 µM; with IGROV1 ovarian it was > 100 µM; with EKVX NSCLC, 37.7 µM. Moreover, the TGI in the assay with SW-620 colon and in the assay with A498 renal was > 100 µM in each case.
